*1 amine or outer side, *2 acyl side, *3 side chain or, on linkers, in order; H or OH if unused. Where a SMILES comes first, the peptide text is derived from it. Primed or numbered codes have the meaning given here. [ ]: non-standard residue; d: D form. The star is where a group is joined. ξ: configuration not given here. X1 = 4‑(2′-methylphenyl)‑3‑pyridylalanine, Cc1ccccc1-c1ccncc1C[C@H](N[*:1])C(=O)[*:2]; Ala(6-(2-MePh)pyridin-3-yl) = Cc1ccccc1-c1ccc(C[C@H](N)C(=O)O)cn1; Phe(4-(2-Et-4-HO-Ph)) = CCc1cc(O)ccc1-c1ccc(C[C@H](N)C(=O)O)cc1; Bip(2'-Et-4'-OMe) = CCc1cc(OC)ccc1-c1ccc(C[C@H](N)C(=O)O)cc1; X2 = Cc1ccccc1-c1ncc(C[C@H](N[*:1])C(=O)[*:2])cn1; αMePhe(2,6-F2) = C[C@](N)(Cc1c(F)cccc1F)C(=O)O; αMePhe(2-F) = C[C@](N)(Cc1ccccc1F)C(=O)O; ξαMePhe(2-F) = CC(N)(Cc1ccccc1F)C(=O)O; αMeP = C[C@@]1(C(=O)O)CCCN1; dNMeA = CN[C@H](C)C(=O)O; ξαMeP = CC1(C(=O)O)CCCN1; Aib = CC(C)(N)C(=O)O; Moc = COC(=O)*
Assays:
[1] = Dog pharmacokinetic study; assay type: in vivo; settings: sc 67 μg/kg; vehicle propylene glycol/pH 7.4 phosphate buffer (1:1)
Description: The pharmacokinetic parameters of the Compounds of SEQ ID NO: 9, 118, 151 and 158 were determined in male beagle dogs (n=3-4, 14±1 kg). Following an overnight fast, each animal received the Compounds of SEQ ID NO: 9, 118, 151 and 158 either as an intravenous bolus via femoral vein (67 μg/kg) or by subcutaneous injection given at near the shoulder blades (67 μg/kg). Each animal received both intravenous and subcutaneous doses with a one-week washout between doses following a crossover design. The dosing vehicle for both routes of administration was propylene glycol:pH 7.4 phosphate buffer (50:50) or 0.2 M Tris (pH 8.0). Serial blood samples were collected in EDTA-containing microcentrifuge tubes at predose, 0.083, 0.25, 0.5, 0.75, 1, 2, 4, 6, 8, 24, and 30 hours post-dose after intravenous administration; at predose, 0.25, 0.5, 0.75, 1, 2, 4, 6, 8, 24, and 30 hours post-dose after subcutaneous administration. Approximately 0.3 mL of blood was collected at each time point. Blood samples were immediately centrifuged at 4° C. The obtained plasma was frozen with dry ice and stored at −20° C. Plasma drug levels were determined using the LC-MS/MS assay described below.
Plasma samples from the in vivo dog study were prepared for analysis by precipitating plasma proteins with two volumes of AcCN containing an internal standard. The samples were vortex mixed and the precipitated proteins were removed by centrifugation. The resulting supernatants were transferred to a 96-well plate and 10 μL were injected for TFC-LC/MS/MS analysis.
The TFC-HPLC system (Cohesive TX-1 Flux, Aria 2300 System) consisted of a loading pump, an eluting pump, and a CTC PAL autosampler (Cohesive Technologies, Franklin, Mass.). The columns used were Phenomenex Synergi Fusion-RP (C18, 2.0×50 mm, 4μ) (Phenomenex, Torrance, Calif.) as the analytical column and Turbo-Flow (TF) HTLC Cyclone column (0.5×50 mm) (Cohesive Technologies, Franklin, Mass.) as the extraction column for on-line sample processing. The mobile phase A consisted of 10 mM ammonium formate and 0.1% formic acid in water and mobile phase B consisted of 0.1% formic acid in AcCN. Turbo-Flow Chromatography was used to obtain a cleaner sample. A rapid gradient elution was used for analyte separation. The samples were injected onto the Turbo-Flow HTLC Cyclone column and analytes were separated from biological fluid components with using 100% H2O at 1.5 mL/min. The TF column was back flushed and analytes were back eluted from the TF to HPLC analytical column using a ramp to 60% B over 2 min and held there for 30 seconds at 0.3 mL/min to separate and to elute the analytes from the HPLC column into the mass spectrometer. Both columns were washed for an additional minute and then both columns were re-equilibrated at initial conditions.
The HPLC was interfaced to a Sciex API 4000 mass spectrometer (Applied Biosystems, Foster City, Calif.) and was equipped with a TurboIonspray ionization source. Ultra high purity nitrogen was used as the nebulizing and turbo-gas. The temperature of turbo-gas was set at 300° C. and the interface heater was set at 60° C. Selected Reaction Monitoring (SRM) was used for data acquisition. Multiple charged ion species, i.e. (M+2H)^2+ for Compound of SEQ ID NO: 158 were selected in Q1 and were collisionally dissociated with high purity nitrogen at a pressure of 3.5×10^−3 torr in Q2 to form specific product ions which were subsequently monitored in Q3. The ion transitions and voltages are summarized below (Table 4).
The standard curve concentrations, ranging from 1 to 1000 nM, were analyzed in duplicate. The curves were fitted with a linear regression weighted by reciprocal concentration […]. Quality control (QC) samples, prepared in blank matrix at the same concentrations as the standards were also analyzed in each analytical set. […]

[2] = test system: ob/ob mice; assay: Intraperitoneal glucose tolerance test (ipGTT) in ob/ob mice after sc injection; assay type: in vivo, mouse; settings: 10 nmol/kg sc; relative to vehicle-treated group
Description: Peptides were dissolved in an appropriate vehicle at a concentration in nmol/ml equivalent to the dose that was to be administered in nmol/kg so that each mouse would receive the same volume/weight of dosing solution. Male C57BL/6-ob/ob mice (10 weeks old) were randomized into groups of 6 mice per group based on fed plasma glucose and body weight. After an overnight fast, mice were weighed and placed in the experimental lab. After 30 min in the environment, the mice were bled via tail tip at −30 min and immediately injected subcutaneously (sc) with vehicle or the peptide dissolved in vehicle (0.1 ml solution/100 g body weight). At time 0 the mice were bled and then injected intraperitoneally with 50% glucose (2 g/kg) to initiate the intraperitoneal glucose tolerance test (ipGTT). The mice were bled 30, 60, 120 and 180 min after the glucose injection. Blood samples were drawn into potassium EDTA, placed on ice during the study and subsequently centrifuged for 10 min at 3000 rpm at 4° C. Plasma samples were diluted 11-fold for glucose analysis in the Cobas System. Another 5 μl plasma sample was diluted 5-fold with 20 μl of Sample Diluent (Insulin ELISA assay kit, Crystal Chem. Inc.) and stored at −20° C. for subsequent analysis using the Ultra Sensitive Mouse Insulin ELISA kit (Crystal Chem Inc.).

[3] = target: T1, Human GLP-1 Receptor (Homo sapiens, UniProt P43220); assay: Cyclic AMP determination in CHO cells expressing human GLP-1 receptor; assay type: cell-based; settings: human GLP-1 receptor
T1 construct: Full-length human glucagon-like peptide 1 receptor was stably expressed in CHO-K1 cells; expressed in transfected cells; host or cells: CHO-K1 (clone CHO-GLP1R-19)
Description: CHO-GLP-1R-19 cells (20,000 in 100 μl of media) were plated into each well of a 96-well tissue culture microtiter plate and incubated overnight in a 5% CO2 atmosphere at 37° C. On the day of the assay, cells were washed once with 100 μl of phosphate-buffered saline (PBS). A Biomek 2000 was used to serially dilute all peptides prior to beginning the assay. Serial dilutions were carried out in 100% DMSO.
50 μl of each cAMP standard was added by hand and 70 μl of mix reagent (Amersham cAMP SPA kit) was added using the multidrop. […] This standard curve was used to convert CPM to pmol of cAMP.
Cell plates and peptide plates were loaded onto the Platemate. The media was aspirated from the wells and discarded. 100 uL per well of the peptide/buffer mixture were then added from the peptide plates to initiate the assay. After 30 min. of incubation the peptide/buffer was removed and 50 uL of the lysis reagent 1 solution was added per well. The plate was kept for one hour at RT or overnight if refrigerated and sealed.
Dose dependence for Compounds was determined at half-log concentrations in duplicate. […] A standard curve was determined using known amounts of cyclic AMP. […] The data were analyzed by nonlinear regression curve fitting (4 parameter sigmoidal dose-response curve) to determine the EC50 of the compounds.

[4] = target: Full-length human glucagon-like peptide 1 receptor (human, UniProt P43220 24-463); assay: cell-based or functional assay

T1 sequence (P43220 24-463): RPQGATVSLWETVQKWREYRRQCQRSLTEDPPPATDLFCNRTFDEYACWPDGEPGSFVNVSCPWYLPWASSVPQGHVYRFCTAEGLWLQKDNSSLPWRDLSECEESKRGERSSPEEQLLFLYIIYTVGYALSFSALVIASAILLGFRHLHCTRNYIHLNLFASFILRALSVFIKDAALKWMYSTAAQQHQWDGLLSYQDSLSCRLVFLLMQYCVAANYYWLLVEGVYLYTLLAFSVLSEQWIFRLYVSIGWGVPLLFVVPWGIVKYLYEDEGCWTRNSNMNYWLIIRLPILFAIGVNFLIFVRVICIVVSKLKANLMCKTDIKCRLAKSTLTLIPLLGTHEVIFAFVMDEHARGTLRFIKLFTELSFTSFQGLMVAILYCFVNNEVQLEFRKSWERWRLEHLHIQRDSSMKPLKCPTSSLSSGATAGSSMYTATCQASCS

Molecule | Exposure in dogs (sc@67 μg/kg) [1] | also measured
CCc1cc(OC)ccc1-c1ccc(C[C@H](NC(=O)[C@H](CC(=O)O)NC(=O)[C@H](CO)NC(=O)[C@@H](NC(=O)[C@](C)(Cc2ccccc2F)NC(=O)[C@@H](NC(=O)CNC(=O)[C@H](CCC(=O)O)NC(=O)[C@@H](C)N(C)C(=O)[C@@H](N)Cc2c[nH]cn2)[C@@H](C)O)[C@@H](C)O)C(=O)N[C@@H](Cc2ccc(-c3ccccc3C)nc2)C(N)=O)cc1 [SEQ ID NO: 119] (H-H[dNMeA]EGT[αMePhe(2-F)]TSD[Bip(2'-Et-4'-OMe)][Ala(6-(2-MePh)pyridin-3-yl)]-NH2) | 1.257 µM·h | 
CCc1cc(OC)ccc1-c1ccc(C[C@H](NC(=O)[C@H](CC(=O)O)NC(=O)[C@H](Cc2c[nH]cn2)NC(=O)[C@@H](NC(=O)[C@](C)(Cc2ccccc2F)NC(=O)[C@@H](NC(=O)CNC(=O)[C@H](CCC(=O)O)NC(=O)[C@]2(C)CCCN2C(=O)[C@@H](N)Cc2c[nH]cn2)[C@@H](C)O)[C@@H](C)O)C(=O)N[C@@H](Cc2ccc(-c3ccccc3C)nc2)C(N)=O)cc1 [SEQ ID NO: 120] (H-H[αMeP]EGT[αMePhe(2-F)]THD[Bip(2'-Et-4'-OMe)][Ala(6-(2-MePh)pyridin-3-yl)]-NH2) | 1.116 µM·h | 
CCc1cc(OC)ccc1-c1ccc(C[C@H](NC(=O)[C@H](CC(=O)O)NC(=O)[C@H](CO)NC(=O)[C@@H](NC(=O)[C@](C)(Cc2ccccc2F)NC(=O)[C@@H](NC(=O)CNC(=O)[C@H](CCC(=O)O)NC(=O)C(C)(C)NC(=O)[C@@H](N)Cc2c[nH]cn2)[C@@H](C)O)[C@@H](C)O)C(=O)N[C@@H](Cc2cnc(-c3ccccc3C)nc2)C(N)=O)cc1 [SEQ ID NO: 130] (H-H[Aib]EGT[αMePhe(2-F)]TSD[Bip(2'-Et-4'-OMe)][X2]-NH2) | 0.541 µM·h | 
CCc1cc(OC)ccc1-c1ccc(C[C@H](NC(=O)[C@H](CC(=O)O)NC(=O)[C@H](CO)NC(=O)[C@@H](NC(=O)C(C)(Cc2ccccc2F)NC(=O)[C@@H](NC(=O)CNC(=O)[C@H](CCC(=O)O)NC(=O)C2(C)CCCN2C(=O)[C@H](Cc2c[nH]cn2)NC(=O)OC)[C@@H](C)O)[C@@H](C)O)C(=O)N[C@@H](Cc2ccc(-c3ccccc3C)nc2)C(N)=O)cc1 (stereo partly drawn) [SEQ ID NO: 139] (Moc-H[ξαMeP]EGT[ξαMePhe(2-F)]TSD[Bip(2'-Et-4'-OMe)][Ala(6-(2-MePh)pyridin-3-yl)]-NH2) | 1.603 µM·h | Potency in ob/ob mice: % AUC Reduction in Plasma Glucose in an IP Glucose Tolerance Test after SC Injection of Compound [2]: −63% (p < 0.01)
CCc1cc(O)ccc1-c1ccc(C[C@H](NC(=O)[C@H](CC(=O)O)NC(=O)[C@H](Cc2c[nH]cn2)NC(=O)[C@@H](NC(=O)C(C)(Cc2ccccc2F)NC(=O)[C@@H](NC(=O)CNC(=O)[C@H](CCC(=O)O)NC(=O)C2(C)CCCN2C(=O)[C@H](Cc2c[nH]cn2)NC(=O)OC)[C@@H](C)O)[C@@H](C)O)C(=O)N[C@@H](Cc2ccc(-c3ccccc3C)nc2)C(N)=O)cc1 (stereo partly drawn) [SEQ ID NO: 157] (Moc-H[ξαMeP]EGT[ξαMePhe(2-F)]THD[Phe(4-(2-Et-4-HO-Ph))][Ala(6-(2-MePh)pyridin-3-yl)]-NH2) |  | Emax ([3]; CHO, percent of maximal GLP-1 stimulated activity): 99.4%; Mean Hill [3]: 1.9
Moc-H[αMeP]EGT[αMePhe(2-F)]THD[Phe(4-(2-Et-4-HO-Ph))][X1]-NH2 [Compound of SEQ ID NO: 157] |  | Mean EC50 (nM), stimulation of cAMP synthesis in CHO cells [4]: 0.026 nM; Mean Emax (%), stimulation of cAMP synthesis in CHO cells [4]: 99.4%

Continued, in another order:

Exposure in dogs (sc@67 μg/kg) [1] | Molecule | also measured
0.283 µM·h | CCc1cc(OC)ccc1-c1ccc(C[C@H](NC(=O)[C@H](CC(=O)O)NC(=O)[C@H](CO)NC(=O)[C@@H](NC(=O)[C@](C)(Cc2c(F)cccc2F)NC(=O)[C@@H](NC(=O)CNC(=O)[C@H](CCC(=O)O)NC(=O)[C@]2(C)CCCN2C(=O)[C@H](Cc2c[nH]cn2)NC(=O)OC)[C@@H](C)O)[C@@H](C)O)C(=O)N[C@@H](Cc2ccc(-c3ccccc3C)nc2)C(N)=O)cc1 [SEQ ID NO: 140] (Moc-H[αMeP]EGT[αMePhe(2,6-F2)]TSD[Bip(2'-Et-4'-OMe)][Ala(6-(2-MePh)pyridin-3-yl)]-NH2) | 
0.94 µM·h | CCc1cc(OC)ccc1-c1ccc(C[C@H](NC(=O)[C@H](CC(=O)O)NC(=O)[C@H](CO)NC(=O)[C@@H](NC(=O)[C@](C)(Cc2ccccc2F)NC(=O)[C@@H](NC(=O)CNC(=O)[C@H](CCC(=O)O)NC(=O)[C@@H](C)NC(=O)[C@@H](N)Cc2c[nH]cn2)[C@@H](C)O)[C@@H](C)O)C(=O)N[C@@H](Cc2ccc(-c3ccccc3C)nc2)C(N)=O)cc1 [SEQ ID NO: 149] (H-H[dA]EGT[αMePhe(2-F)]TSD[Bip(2'-Et-4'-OMe)][Ala(6-(2-MePh)pyridin-3-yl)]-NH2) | 
0.979 µM·h | CCc1cc(OC)ccc1-c1ccc(C[C@H](NC(=O)[C@H](CC(=O)O)NC(=O)[C@H](CO)NC(=O)[C@@H](NC(=O)[C@](C)(Cc2ccccc2F)NC(=O)[C@@H](NC(=O)CNC(=O)[C@H](Cc2c[nH]cn2)NC(=O)C(C)(C)NC(=O)[C@@H](N)Cc2c[nH]cn2)[C@@H](C)O)[C@@H](C)O)C(=O)N[C@@H](Cc2ccc(-c3ccccc3C)nc2)C(N)=O)cc1 [SEQ ID NO: 150] (H-H[Aib]HGT[αMePhe(2-F)]TSD[Bip(2'-Et-4'-OMe)][Ala(6-(2-MePh)pyridin-3-yl)]-NH2) | 
